Assay results from patent US8329645B2, “Polymyxin derivatives and uses thereof” (priority 2008, dated 2012).

Legend:
E. coli IH3080 = assay: E-test MIC with or without NAB7061 (4 μg/ml), Mueller-Hinton agar; format: cell-based, Escherichia coli
Procedure: (§1) MICs were determined by using E-strips (Biodisk Ltd., Solna, Sweden) according to the manufacturer's instructions.
(§2) The strains originated from ATCC (11 strains), CCUG (11 strains), and NCTC (The National Collection of Type Cultures, Colindale, U.K.; 2 strains). Eight strains (the F-strains) were purchased from Mobidiag Ltd., Helsinki, Finland.

E. coli ATCC25922 = settings: E. coli ATCC25922
Procedure: as §1, §2

K. pneumoniae ATCC13883 = settings: K. pneumoniae ATCC13883
Procedure: as §1, §2

E. cloacae ATCC23355 = assay: E-test MIC with or without NAB7061 (4 μg/ml), Mueller-Hinton agar; format: cell-based, Enterobacter cloacae
Procedure: as §1, §2

A. baumannii ATCC19606 = assay: E-test MIC of antibiotics on Mueller Hinton agar containing increasing concentrations of NAB739; format: cell-based, Acinetobacter baumannii
A. baumannii F264 = assay: as above; format: cell-based, Acinetobacter baumannii
P. aeruginosa ATCC 27853 = assay: as above; format: cell-based, Pseudomonas aeruginosa
[1] = tested on: both Acinetobacter strains (ATCC 19606 and F264); assay: E-test sensitization by NAB739, both strains; format: cell-based, Acinetobacter baumannii
[2] = tested on: E. coli (ATCC25922 and IH3080), K. pneumoniae ATCC13883, and E. cloacae ATCC23355; assay: E-test sensitization by NAB7061, range over the tested strains; format: cell-based; settings: four tested strains
Procedure: as §1

[3] = molecular target: brush-border membrane (BBM) from the renal cortex; assay: Inhibition of binding of radiolabelled gentamycin to brush-border membrane vesicles; settings: rat renal cortex BBM vesicles; 20 μM [3H] gentamycin; 60 min at 4° C.
Text: The binding of the compounds according to this invention to isolated brush-border membrane (BBM) from the renal cortex can be measured indirectly by measuring their ability to inhibit the binding of radiolabelled gentamycin to BBM. Accordingly, the compounds according to this invention that have less affinity to BBM than for example polymyxin B inhibit the binding of radiolabelled gentamycin to a lesser degree than does polymyxin B.
BBM was isolated from the renal cortex of male albino rats by using the Mg^2+/EGTA precipitation technique as described by Nagai et al. (2006). The binding of gentamycin was measured, according to the method described by Nagai et al. (2006) by incubating BBM vesicles (20 μl) in 10 mM HEPES (pH 7.5) with 300 mM mannitol in the presence of 20 μM [^3H] gentamycin (American Radiolabeled Chemicals, Inc. (St. Louis, Mo., U.S.A.) with or without the compound to be tested or a positive control. After an incubation of 60 min at 4° C., 1 ml of ice-cold buffer described above was added, and the mixture was filtered through a Millipore filter (0.45 μm; HAWP). The filter was washed with the buffer and the radioactivity remaining in the filter was measured by using a liquid scintillation counter. The IC50 values were determined as in Nagai et al. (2006) using the Hill equation.

Compound: CN[C@H](CC(C)C)C(=O)N[C@H]1C(=O)N[C@@H](CC(N)=O)C(=O)N[C@H]2C(=O)N[C@H]3C(=O)N[C@H](C(=O)N[C@H](C(=O)O)c4cc(O)cc(O)c4-c4cc3ccc4O)[C@H](O)c3ccc(c(Cl)c3)Oc3cc2cc(c3O[C@@H]2O[C@H](CO)[C@@H](O)[C@H](O)[C@H]2O[C@H]2C[C@](C)(N)[C@H](O)[C@H](C)O2)Oc2ccc(cc2Cl)[C@H]1O [Vancomycin]
- Sensitization factor to antibiotic (MIC without / with 4 μg/ml of NAB 7061) (E. coli IH3080): 2.5
- Sensitization factor to antibiotic (MIC without / with 4 μg/ml of NAB 7061) (E. coli ATCC25922): 5
- Sensitization factor to antibiotic (MIC without / with 4 μg/ml of NAB 7061) (K. pneumoniae ATCC13883): 1
- Sensitization factor to antibiotic (MIC without / with 4 μg/ml of NAB 7061) (E. cloacae ATCC23355): 32
- MIC of antibiotic in the presence of NAB739 (A. baumannii ATCC19606; NAB 739 0 μg/ml): >256 µg/mL
- MIC of antibiotic in the presence of NAB739 (A. baumannii ATCC19606; NAB 739 0.5 μg/ml): 3 µg/mL
- MIC of antibiotic in the presence of NAB739 (A. baumannii ATCC19606; NAB 739 1 μg/ml): 1 µg/mL
- MIC of antibiotic in the presence of NAB739 (A. baumannii F264; NAB 739 0 μg/ml): >256 µg/mL
- MIC of antibiotic in the presence of NAB739 (A. baumannii F264; NAB 739 0.5 μg/ml): 3 µg/mL
- MIC of antibiotic in the presence of NAB739 (A. baumannii F264; NAB 739 1 μg/ml): 1 µg/mL
- MIC of antibiotic in the presence of NAB739 (P. aeruginosa ATCC 27853; NAB 739 0 μg/ml): >256 µg/mL
- MIC of antibiotic in the presence of NAB739 (P. aeruginosa ATCC 27853; NAB 739 0.5 μg/ml): >256 µg/mL
- MIC of antibiotic in the presence of NAB739 (P. aeruginosa ATCC 27853; NAB 739 1 μg/ml): >256 µg/mL
- MIC of antibiotic in the presence of NAB739 (P. aeruginosa ATCC 27853; NAB 739 2 μg/ml): >256 µg/mL
- MIC of antibiotic in the presence of NAB739 (P. aeruginosa ATCC 27853; NAB 739 […]): >256 µg/mL
- sensitization factors to antibiotic at NAB739 0.5 μg/ml [1]: 85

Compound: CC(=O)O[C@H]1C[C@@]2(C)[C@@H](C[C@@H](O)[C@H]3[C@@]4(C)CC[C@@H](O)[C@@H](C)[C@@H]4CC[C@@]32C)/C1=C(\CCC=C(C)C)C(=O)O [Fusidic acid]
- Sensitization factor to antibiotic (MIC without / with 4 μg/ml of NAB 7061) (E. coli IH3080): >43
- Sensitization factor to antibiotic (MIC without / with 4 μg/ml of NAB 7061) (E. coli ATCC25922): >43
- Sensitization factor to antibiotic (MIC without / with 4 μg/ml of NAB 7061) (K. pneumoniae ATCC13883): >4
- Sensitization factor to antibiotic (MIC without / with 4 μg/ml of NAB 7061) (E. cloacae ATCC23355): >8
- MIC of antibiotic in the presence of NAB739 (A. baumannii ATCC19606; NAB 739 0 μg/ml): >256 µg/mL
- MIC of antibiotic in the presence of NAB739 (A. baumannii ATCC19606; NAB 739 0.5 μg/ml): 4 µg/mL
- MIC of antibiotic in the presence of NAB739 (A. baumannii ATCC19606; NAB 739 1 μg/ml): 1 µg/mL
- MIC of antibiotic in the presence of NAB739 (A. baumannii F264; NAB 739 0 μg/ml): >256 µg/mL
- MIC of antibiotic in the presence of NAB739 (A. baumannii F264; NAB 739 0.5 μg/ml): 3 µg/mL
- MIC of antibiotic in the presence of NAB739 (A. baumannii F264; NAB 739 1 μg/ml): 1 µg/mL
- MIC of antibiotic in the presence of NAB739 (P. aeruginosa ATCC 27853; NAB 739 0 μg/ml): >256 µg/mL
- MIC of antibiotic in the presence of NAB739 (P. aeruginosa ATCC 27853; NAB 739 0.5 μg/ml): >256 µg/mL
- MIC of antibiotic in the presence of NAB739 (P. aeruginosa ATCC 27853; NAB 739 1 μg/ml): >256 µg/mL
- MIC of antibiotic in the presence of NAB739 (P. aeruginosa ATCC 27853; NAB 739 2 μg/ml): 192 µg/mL
- MIC of antibiotic in the presence of NAB739 (P. aeruginosa ATCC 27853; NAB 739 […]): >256 µg/mL
- sensitization factors to antibiotic at NAB739 0.5 μg/ml [1]: 64-85

Compound: CC[C@H]1OC(=O)[C@H](C)[C@@H](O[C@H]2C[C@@](C)(OC)[C@@H](O)[C@H](C)O2)[C@H](C)[C@@H](O[C@@H]2O[C@H](C)C[C@H](N(C)C)[C@H]2O)[C@](C)(O)C[C@@H](C)CN(C)[C@H](C)[C@@H](O)[C@]1(C)O [Azithromycin]
- Sensitization factor to antibiotic (MIC without / with 4 μg/ml of NAB 7061) (E. coli IH3080): 31-94
- Sensitization factor to antibiotic (MIC without / with 4 μg/ml of NAB 7061) (E. coli ATCC25922): 24-64
- Sensitization factor to antibiotic (MIC without / with 4 μg/ml of NAB 7061) (K. pneumoniae ATCC13883): 31-43
- Sensitization factor to antibiotic (MIC without / with 4 μg/ml of NAB 7061) (E. cloacae ATCC23355): 32
- Sensitization factor to antibiotic at 4 μg/ml of NAB7061, range over the tested strains [2]: 31-94

Compound: gentamycin [reference compound]
- IC50 [3]: 90.2 ± 9.7 µM

Compound: C/C(=C\C(=O)OCCCCCCCCC(=O)O)C[C@@H]1OC[C@H](C[C@@H]2O[C@H]2[C@@H](C)[C@H](C)O)[C@@H](O)[C@H]1O [Mupirocin]
- Sensitization factor to antibiotic (MIC without / with 4 μg/ml of NAB 7061) (E. coli IH3080): 64-85
- Sensitization factor to antibiotic (MIC without / with 4 μg/ml of NAB 7061) (E. coli ATCC25922): 64-170
- Sensitization factor to antibiotic (MIC without / with 4 μg/ml of NAB 7061) (K. pneumoniae ATCC13883): 24-32
- Sensitization factor to antibiotic (MIC without / with 4 μg/ml of NAB 7061) (E. cloacae ATCC23355): 250-512
- Sensitization factor to antibiotic at 4 μg/ml of NAB7061, range over the tested strains [2]: 24-512
